The record followed here is PMC12487887, “Global conformations of Pichia pastoris complex I are distinguished by the binding of a unique interdomain bridging subunit” (Science Advances, 2025).

Assay [1] deals with T1, Pp-CI (flavin site; NDUFV1) (Komagataella pastoris, UniProt E1UWA7).
T1 construct: gene nubm; native mitochondrial complex I, 44 subunits, purified in LMNG, in cMSP26 nanodiscs or proteoliposomes; with NADH-ubiquinone oxidoreductase 24 kDa subunit, mitochondrial; NADH-ubiquinone oxidoreductase 75 kDa subunit, mitochondrial
T1 sequence (E1UWA7 17-473): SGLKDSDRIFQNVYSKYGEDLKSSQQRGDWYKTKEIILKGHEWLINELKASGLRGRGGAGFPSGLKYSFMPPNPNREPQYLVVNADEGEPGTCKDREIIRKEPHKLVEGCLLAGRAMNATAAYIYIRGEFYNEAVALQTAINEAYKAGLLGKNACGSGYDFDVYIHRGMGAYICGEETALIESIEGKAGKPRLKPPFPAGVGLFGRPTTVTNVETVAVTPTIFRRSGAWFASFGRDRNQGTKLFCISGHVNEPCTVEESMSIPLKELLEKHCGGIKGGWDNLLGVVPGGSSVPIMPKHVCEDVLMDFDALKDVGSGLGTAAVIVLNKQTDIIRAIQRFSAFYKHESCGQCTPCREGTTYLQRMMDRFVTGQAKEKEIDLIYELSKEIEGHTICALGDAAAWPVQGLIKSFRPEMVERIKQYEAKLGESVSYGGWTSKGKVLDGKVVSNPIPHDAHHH
The experiment in a line: NADH:APAD+ oxidoreduction in proteoliposomes. The conditions noted are these: 500 μM APAD+, 100 μM NADH; pH 7.5, 32°C. It is filed as biochemical.

The target in assay [2] is T1, Pp-CI (flavin site; NDUFV1). The experiment in a line: cryo-EM structure. The conditions noted are these: state 1, closed, 2.8 Å. It is filed as binding.
For assay [3] the target is unchanged. Put plainly: NADH:APAD+ and NADH:O2 oxidoreduction, absorbance […]-380 nm. Conditions: 100 μM NADH with 500 μM APAD+ or 200 μM NADH with Q10/AOX; pH 7.5, 32°C. It counts as biochemical.
Assay [4] has as its target T2, NDUFA9 subunit of Pp-CI (Komagataella pastoris, UniProt E1UWA9).
T2 construct: gene nuem; supernumerary subunit within native 44-subunit mitochondrial complex I in cMSP26 nanodiscs
T2 sequence (E1UWA9 36-384): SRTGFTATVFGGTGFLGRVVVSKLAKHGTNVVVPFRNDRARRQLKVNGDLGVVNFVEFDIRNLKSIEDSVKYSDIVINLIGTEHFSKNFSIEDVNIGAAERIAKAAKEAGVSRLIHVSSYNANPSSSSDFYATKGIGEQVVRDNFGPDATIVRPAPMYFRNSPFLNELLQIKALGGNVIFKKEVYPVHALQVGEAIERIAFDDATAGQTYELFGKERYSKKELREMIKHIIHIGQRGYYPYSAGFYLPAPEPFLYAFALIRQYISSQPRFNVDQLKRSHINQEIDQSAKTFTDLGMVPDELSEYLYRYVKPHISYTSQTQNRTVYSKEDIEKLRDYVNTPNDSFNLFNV
The experiment in a line: cryo-EM structure. Conditions: state 1, closed, 2.8 Å. It is filed as binding.

Assay [5] concerns the target T3, Pp-CI (Q10-binding site) (Komagataella pastoris, UniProt E1UWA8+E1UWB5+E1UWC2).
T3 construct: gene nucm; native mitochondrial complex I, 44 subunits, purified in LMNG, in cMSP26 nanodiscs or proteoliposomes; with NADH-ubiquinone oxidoreductase 51 kDa subunit, mitochondrial; NADH-ubiquinone oxidoreductase 24 kDa subunit, mitochondrial
The experiment in a line: NADH:O2 oxidoreduction with AOX, nanodiscs. It is filed as biochemical. The conditions noted are these: 200 μM NADH; Q10 in bilayer; pH 7.5, 32°C.

Assay [6] deals with Pichia pastoris complex I (NADH:ubiquinone oxidoreductase), the 43 subunits other than NUQM, with the flavoprotein subcomplex (Pichia pastoris (endogenous in strain X-33)). The experiment in a line: cryo-EM structure; Pp-CI purified in LMNG and reconstituted into cMSP26 nanodiscs with DOPC:DOPE:CDL and Q10, 10 mM Mops pH 7.5, 50 mM KCl; Titan Krios 300 kV; particles classified into four states (state 1 closed with NUQM 2.80 A; state 3 open without NUQM 3.34 A).

The target is the same in assay [7]. Put plainly: cryo-EM structure; Pp-CI reconstituted into proteoliposomes (Pp-CI-PLs), 10 mM Mops pH 7.5, 50 mM KCl; Talos Arctica 200 kV; focused 3D classification on NUQM and on the flavoprotein; NUQM-bound map 4.7 A.

Regarding `CC(=O)c1ccc[n+]([C@@H]2O[C@H](COP(=O)(O)OP(=O)(O)OC[C@H]3O[C@@H](n4cnc5c(N)ncnc54)[C@H](O)[C@@H]3O)[C@@H](O)[C@H]2O)c1` [APAD^+], the “NADH:APAD+ oxidoreduction in proteoliposomes” value in assay [1] is “the consistent rates of the flavin-localized NADH:APAD^+ reaction”.
For `Cc1cc2nc3c(=O)[nH]c(=O)nc-3n(C[C@H](O)[C@H](O)[C@H](O)COP(=O)(O)O)c2cc1C` [FMN], in assay [2], the cryo-EM structure result was “canonical CI subunits that contain the FMN in the active site for NADH oxidation”.
Take `NC(=O)C1=CN([C@@H]2O[C@H](COP(=O)(O)OP(=O)(O)OC[C@H]3O[C@@H](n4cnc5c(N)ncnc54)[C@H](O)[C@@H]3O)[C@@H](O)[C@H]2O)C=CC1` [NADH]: the “NADH:APAD+ and NADH:O2 oxidoreduction, absorbance 340-380 nm” value in assay [3] is “the consistent rates of the flavin-localized NADH:APAD^+ reaction”.
On to `NC(=O)C1=CN([C@@H]2O[C@H](COP(=O)(O)OP(=O)(O)OC[C@H]3O[C@@H](n4cnc5c(N)ncnc54)[C@H](OP(=O)(O)O)[C@@H]3O)[C@@H](O)[C@H]2O)C=CC1` [NADPH], for which the cryo-EM structure result in assay [4] is listed as “bound in NDUFA9”.
In the case of `COC1=C(OC)C(=O)C(C/C=C(\C)CC/C=C(\C)CC/C=C(\C)CC/C=C(\C)CC/C=C(\C)CC/C=C(\C)CC/C=C(\C)CC/C=C(\C)CC/C=C(\C)CCC=C(C)C)=C(C)C1=O` [Q10], in assay [5], the “NADH:O2 oxidoreduction with AOX, nanodiscs” value is “confirming the rapid redox-cycling turnover of the Q10 contained in the ND bilayer”.

B1: NUQM, supernumerary interdomain bridge subunit of Pichia pastoris complex I (natural protein)
chain: ALATIRNDLKLNFRFKADVLEKNVIRSILAETKNLEIDNKDKDLDEFKLYDLLSKMIKQRQDSAAIYLKEGSPDRFRQTGWNELREVDYITKYLEALPVASAEEIEAKVEPIVQSVLEEEGELKSPKEIFSRIPWKVVNQDWQASEGAVKNTVLRLYNLYKTDA
As for B1, the percent of flavoprotein-containing particles with NUQM bound in assay [6] is 68.1%. The molecule also had a percent of outward-facing, flavoprotein-bound particles with NUQM bound in assay [7] of 77%.
